# From patent US6645504B1, “Bystander suppression of type I diabetes by oral administration of glucagon” (AutoImmune Inc., priority 1987, dated 2003)
# Where “and” joins values, the source holds several entries; their conditions need not be identical. Equal values may be shown once.
# What was measured:
# TGF-β = experiment: Measurement of TGF-β activity in serum-free culture supernatants of spleen cells; assay type: cell-based, Lewis rats; conditions: spleen cells of fed animals stimulated in vitro with the fed antigen
# Description: Measurement Of TGF-β Activity In Serum-Free Culture Supernatants. Serum free culture supernatants were collected as previously described (Kehri, et al. J. Exp. Med. 163: 1037-1050, 1986; Wahl, et al. J. […] Thereafter cells were washed three times and resuspended in serum-free medium for the remainder of the 72 hour culture, collected, then frozen until assayed. Determination of TGF-β content and isoform type in supernatants was performed using a mink lung epithelial cell line (American Type Culture Collection, Bethesda, Md. #CCL-64) according to Danielpour et al. (supra), and confirmed by a Sandwich Enzyme Linked Immunosorbent Assay (SELISA) assay as previously described (Danielpour et al. Growth Factors 2: 61-71,1989). The percent active TGF-β was determined by assay without prior acid activation of the samples.
# MBP line = experiment: Transwell culture suppression of MBP T cell line; assay type: cell-based, Lewis rats; conditions: MBP line + MBP
# Source text: (§1) Transwell Cultures. A dual chamber transwell culture system (Costar, Cambridge, Mass.), which is 24.5 mm in diameter and consists of two compartments separated by a semi-permeable polycarbonate membrane, with a pore size of 0.4 μm, was used. The two chambers are 1 mm apart, allowing cells to be coin-cubated in close proximity without direct cell-to-cell contact. To measure in vitro suppression of proliferative responses in transwell cultures, 5×10^4 MBP- or OVA-specific line cells, raised and maintained as previously described (Ben-Nun, A. et al., Eur. J. Immunol. 11:195, 1981), were cultured with 10^6 irradiated (2,500 rad) thymocytes, in 600 μl of proliferation media in the lower well. Spleen cells from orally tolerized rats or controls (fed BSA) were added to the upper well (5×10^5 cells in 200 μl). Spleen cells were removed 7-14 days after the last feeding, and a single cell suspension was prepared by pressing the spleens through a stainless steel mesh. MBP and OVA (50 μg/ml) were added in a volume of 20 μl. […] In some experiments, modulator cells were added in the lower well together with responder cells, and in these instances modulator cells were irradiated (1,250 rad) immediately before being placed in culture. Proliferation media consisted of RPMI 1640 (Gibco Laboratories, Grand Island, N.Y.) supplemented with […] 2-mercaptoethanol, 1% sodium pyruvate, 1% penicillin and streptomycin, 1% glutamine, 1% HEPES buffer, 1% nonessential amino acids, and 1% autologous serum. Each transwell was performed in quadruplicate. The transwells were incubated at 37° C. in a humidified 6% CO2 and 94% air atmosphere for 72 hours. After 54 hours of culture, each lower well was pulsed with 4 μCi of [^3H]thymidine and at 72 hours split and reseeded to three wells in a round-bottomed 96-well plate (Costar) for harvesting onto fiberglass filters and counting using standard liquid scintillation techniques. Percent suppression =100×(1−Δ A cpm responders cultured with modulators/Δ cpm of responders).
# EAE [1] = experiment: In vivo bystander suppression of EAE (MBP/CFA plus secondary antigen); design: species or system Lewis rats
# Description: Immunization Of Animals. Animals were immunized with 25 μg of MBP in the footpad, emulsified in an equal volume of CFA containing 4 mg/ml of Mycobacterium tuberculosis (Difco Labs, Detroit, Mich.) in order to induce a substantial EAE disease state. For in vivo bystander suppression experiments, 50-300 μg of the secondary antigens OVA, BSA or KLH were injected subcutaneously in the same footpad in 100 μl PBS 8 hours after primary immunization with MBP CFA.
# Clinical Evaluation. Animals were evaluated in a blinded fashion every day for evidence of EAE in order to correlate the clinical manifestations of Bystander Suppression with the in vitro assays described below. Clinical severity of EAE was scored as follows: 0, no disease; 1, limp tail; 2, hind limb paralysis; 3, hind limb paraplegia, incontinence; 4, tetraplegia; 5, death. Mean maximal clinical severity was calculated as previously described for each experimental group (7). Statistical analysis was performed using a one-tailed student's t test and a chi square analysis for comparing incidence between groups.
# Induction Of Oral Tolerance. Animals were fed 1 mg MBP, OVA, BSA or KLH dissolved in 1 ml PBS or PBS alone, by gastric intubation using an 18-gauge stainless steel animal feeding needle (Thomas Scientific, Swedesboro, N.J.). Animals were fed five times (total dose of 5 mg), at intervals of 2-3 days with the last feeding 2 days before immunization.
# [2] = system: DTH responses to MBP or OVA; experiment: Delayed type hypersensitivity (DTH) testing, Example 2; assay type: in vivo, Lewis rats
# Description: Delayed Type Hypersensitivity (DTH) Testing. DTH was tested by injecting 50 μg of MBP or OVA in PBS, subcutaneously into the ear. MBP was injected in the left ear and OVA in the right ear in the same animal. Thickness, in units of 0.01 inch, was measured in a blinded fashion, before and 48 hours after challenge, using micrometer calipers (Mitutoyo, Utsunomia, Japan). Change in ear thickness before and after challenge was recorded for each animal, and results were expressed as the mean for each experimental group ± SEM; each group consisted of five animals.
# EAE [3] = experiment: Adoptive transfer of disease suppression; assay type: in vivo, Lewis rats; conditions: naive recipients immunized with MBP/CFA and given OVA subcutaneously; FIG. 9
# Description: Adoptive Transfer Of Disease Suppression. In order to monitor the adoptive transfer of disease suppression occurring during Bystander Suppression donor rats were fed either 1 mg MBP, OVA, or KLH, five times at 2 day intervals and killed 7-14 days after the final feeding. Spleen cells were harvested, and incubated in vitro with the homologous antigen (50 μg/ml) in proliferation medium, for 72 hours. Cells were injected intraperitoneally: 10^8 cells for whole spleen populations or 5-6×10^7 cells for CD8− or CD4-depleted populations. Recipient animals were irradiated (250 rad) before adoptive transfer, immunized with MBP/CFA 6 hours after adoptive transfer, and challenged 8 hours later with 50 μg OVA.
# [4] = system: MBP-primed lymphoid cells; experiment: Proliferation of MBP-primed lymphoid cells in response to overlapping guinea pig MBP peptides; assay type: cell-based, rats; conditions: lymph node cells triggered with MBP-peptides; FIG. 10
# Source text: The disease-inducing fragments (autoimmune response epitopes) of MBP were first confirmed as follows: Overlapping peptides as detailed in FIG. 10, of guinea pig MBP were obtained from commercial sources or synthesized in accordance with well-known techniques, specifically using a commercial peptide synthesis apparatus (from Applied Biosystems) and following the manufacturer's instructions. Whole MBP was then fed to rats and lymph node cells from the orally tolerized animals were triggered with the MBP-peptides. The ability of the triggered cells to induce killer T-cells was then quantitatively determined by a proliferation assay also, as described in Examples 1 and 2, and by testing the ability of the proliferating cells to transfer the disease.
# OVA (responder) line = experiment: Transwell triggering of suppression by MBP peptides; assay type: cell-based, rats; conditions: peptide added to modulator well with spleen cells of MBP-fed animals; FIG. 11
# Source text: as §1
# The Transwell System of Example 2 above was used to identify the epitopes present on guinea pig MBP which induce the release of TGF-β from suppressor T-cells.
# Peptides corresponding to guinea pig MBP residue nos.
# EAE [5] = experiment: EAE induced by guinea pig MBP 71-90, feeding of MBP peptides; assay type: in vivo, Lewis rats; conditions: fed; FIG. 14
# Description: The effects of feeding various peptides to Lewis rats induced for EAE by guinea pig MBP residue nos. 71-90 (the major immunodominant epitope of guinea pig MBP as shown in Example 3 above) were also studied.
# EAE was induced by immunizing with 0.25 mg of guinea pig MBP amino acid residue nos 71-90 in Complete Freund's Adjuvant and the effect of feeding various guinea pig MBP peptides on EAE was examined.
# DTH responses = DTH responses in animals fed MBP or MBP peptides; assay type: in vivo, Lewis rats; conditions: FIG. 15
# Source text: Guinea pig MBP peptide 131-150 was ineffective in this case. Peptides were also fed with STI which prevents their breakdown by gastric juices and enhances their biological effect. DTH responses to whole MBP were suppressed by feeding MBP or any one of the MBP-peptides 21-40, or 71-90.
# EAE [6] = experiment: I.V. tolerization with MBP and MBP peptides in EAE induced with whole guinea pig MBP; assay type: in vivo, SJL/J mice; conditions: days 8 and 9 post immunization, FIG. 16
# Source text: FIG. 16 is a bar graph showing the effect of intravenous tolerization with MBP and disease inducing and non-inducing fragments thereof on induced EAE expression in SJL/J mice.
# Finally, the suppression of EAE by I.V. tolerization with MBP and MBP peptides prior to disease expression (on days 8 and 9 post immunization) was examined.
# MBP specific T-cells = experiment: Treatment of supernatants with anti-cytokine antibodies; assay type: cell-based, Lewis rats; conditions: added to spleen cells of MBP-fed animals stimulated with MBP; FIG. 2
# Description: In Vitro Suppression Of Proliferative Responses By Supernatants. Spleen cells were removed 7-14 days after the last feeding and a single cell suspension prepared by pressing the spleens through a stainless steel mesh. For preparation of supernatants, spleen cells at a concentration of 5×10^6 cells/ml were stimulated in vitro with MBP (50 μg/ml) in 10 ml of proliferation medium. Proliferation medium consisted of RPMI 1640 (GIBCO, Grand Island, N.Y.) supplemented with 2×10^−5 M 2-mercaptoethanol, 1% sodium pyruvate, 1% penicillin and streptomycin, 1% glutamine, 1% HEPES buffer, 1% nonessential amino acids and 1% autologous serum. Supernatants were harvested at 24 hours and 100 μl added to 2.5×10^4 MBP specific T-cells, raised and maintained as previously described (Ben-Nun, A. et al., Eur. J. Immunol. 11:195-199, 1981), cultured with 5×10^5 irradiated (2500 rad) thymocytes, in 100 μl of proliferation media. MBP ([…]) was added to the culture in a volume of 20 μl. Experiments were performed in triplicate in round bottomed 96-well plates (Costar, Cambridge, Mass.). Cells were cultured for 72 hours at 37° C. in an incubator with humidified 6% CO2 and 94% air atmosphere, and each well was pulsed with 1 μCi of ^3H thymidine for the last 18 hours of culture. Cultures were harvested onto fiberglass filters using a multiharvester and counted using standard liquid scintillation techniques. […]
# [7] = system: rheumatoid arthritis symptoms; experiment: Oral collagen in humans with rheumatoid arthritis; assay type: in vivo; conditions: 0.1-1.0 mg single dose daily
# Source text: The above animal models can be used to establish the utility of the present invention in mammals (including humans). […] All of these human trials were attempted based on animal data using the appropriate disease model.
# [8] = OVA-fed modulators + OVA in upper well
# [9] = OVA-fed modulators in upper well without OVA
compound,measurement,setting,value
OVA: Ovalbumin purchased from Sigma,TGF-β in the active form,TGF-β,65±9%
same,amount of TGF-β,TGF-β; serum-free,6.1 ± 1.0 ng/mL
same,Percent Suppression,MBP line; [8],47%
same,Δ cpm,MBP line; [8],"37,778 ± 3,780 cpm"
same,Percent Suppression,MBP line; [9],6%
same,Δ cpm,MBP line; [9],"67,075 ± 2,904 cpm"
same,disease severity,"EAE [1]; OVA fed (1 mg, five times) plus OVA given subcutaneously after MBP/CFA, FIG. 6B",0.9±0.2
same,disease severity,"EAE [1]; OVA fed and KLH given subcutaneously (control group), FIG. 6B",3.9±0.1
same,disease severity,"EAE [1]; animals fed OVA in whom KLH was given after MBP/CFA plus OVA subcutaneously, FIG. 6C, two values 'respectively'",3.7±0.1 and 3.8±0.2
same,dose of secondary antigen given subcutaneously at which suppression of EAE occurred,"EAE [1]; fed antigen, same antigen subcutaneously after MBP/CFA",50 µg
same,mean maximal clinical disease severity,"EAE [1]; not fed, OVA given subcutaneously in footpad 8 hours after MBP/CFA, FIG. 6A",3.8±0.1
same,DTH response to OVA,"[2]; OVA fed, OVA subcutaneously in association with MBP/CFA",did not generate an immune response to OVA
same,DTH responses to MBP,"[2]; fed antigen, then immunized with MBP/CFA plus OVA, FIG. 7",Suppressed DTH responses to MBP
same,adoptive transfer of protection by spleen cells from fed animals,EAE [3],adoptively transferred protection
"guinea pig MBP 71-90: peptide spanning residue 71-90 of guinea pig MBP, the immunodominant epitope (SLPQKSQRSQDENPVVHFFK; UniProt P25188 71-90, looked up, fragment)",induction of killer T-cells (proliferation),[4],by far the most efficient inducer of killer T-cells
same,triggering suppression of proliferation in the transwell system,OVA (responder) line,ineffective in triggering suppression
same,down-regulation of EAE induced by guinea pig MBP 71-90,EAE [5],equally effective in down-regulating EAE
same,DTH responses to guinea pig MBP peptide 71-90,DTH responses,suppressed
same,DTH responses to whole MBP,DTH responses,suppressed
same,suppression of EAE induced with whole guinea pig MBP,EAE [6],effective in suppressing EAE
COc1ccc2c(c1)c(CC(=O)O)c(C)n2C(=O)c1ccc(Cl)cc1 [indomethacin],effect on suppression mediated by the supernatants,MBP specific T-cells,No effect on suppression
collagen,"rheumatoid arthritis symptoms (joint tenderness, AM stiffness, grip strength)",[7],successfully suppressed
